Active and inactive are the calls of the source. The calls are words filed in the database; no cut-off is given here.
Legend:
UO-31 = assay: Antiproliferative activity against human UO31 cells assessed as growth inhibition after 48 hrs by sulforhodamine B assay; assay type: functional; settings: UO-31, 48 h
[1] = system: Panel NCI-60 (60 carcinoma cell lines); assay: Antiproliferative activity against human NCI60 cells assessed as growth inhibition after 48 hrs by sulforhodamine B assay; assay type: functional
WI-38 = assay: Cytotoxicity activity against human WI38 cells assessed as reduction in cell viability measured after 48 hrs by MTT assay; assay type: cell-based; settings: WI-38, 48 h
[2] = Selectivity index, ratio of IC50 for human WI38 cells to GI50 for human NCI60 cells
PC-3 = assay: Antiproliferative activity against human PC3 cells assessed as growth inhibition after 48 hrs by sulforhodamine B assay; assay type: functional; settings: PC-3, 48 h
OVCAR-3 = assay: Antiproliferative activity against human OVCAR3 cells assessed as growth inhibition after 48 hrs by sulforhodamine B assay; assay type: functional; settings: OVCAR-3, 48 h
[3] = system: Panel NCI-60 (60 carcinoma cell lines); assay: Antiproliferative activity against human NCI60 cells assessed as growth inhibition at 10 uM after 48 hrs by sulforhodamine B assay; assay type: functional; settings: read-out: GI
DU-145 = assay: Antiproliferative activity against human DU145 cells assessed as growth inhibition after 48 hrs by sulforhodamine B assay; assay type: functional; settings: DU-145, 48 h
ACHN = assay: Antiproliferative activity against human ACHN cells assessed as growth inhibition after 48 hrs by sulforhodamine B assay; assay type: functional
786-0 = assay: Antiproliferative activity against human 786-0 cells assessed as growth inhibition after 48 hrs by sulforhodamine B assay; assay type: functional; settings: 786-0, 48 h
SK-OV-3 = assay: Antiproliferative activity against human SKOV3 cells assessed as growth inhibition after 48 hrs by sulforhodamine B assay; assay type: functional; settings: SK-OV-3, 48 h
NCI/ADR-RES = assay: Antiproliferative activity against human NCI-ADR-RES cells assessed as growth inhibition after 48 hrs by sulforhodamine B assay; assay type: functional
IGROV-1 = assay: Antiproliferative activity against human IGROV1 cells assessed as growth inhibition after 48 hrs by sulforhodamine B assay; assay type: functional; settings: IGROV-1, 48 h
SK-MEL-5 = assay: Antiproliferative activity against human SK-MEL-5 cells assessed as growth inhibition after 48 hrs by sulforhodamine B assay; assay type: functional; settings: SK-MEL-5, 48 h
SK-MEL-2 = assay: Antiproliferative activity against human SK-MEL-2 cells assessed as growth inhibition after 48 hrs by sulforhodamine B assay; assay type: functional; settings: SK-MEL-2, 48 h
MDA-MB-435 = assay: Antiproliferative activity against human MDA-MB-435 cells assessed as growth inhibition after 48 hrs by sulforhodamine B assay; assay type: functional; settings: MDA-MB-435, 48 h
Malme-3M = assay: Antiproliferative activity against human MALME-3M cells assessed as growth inhibition after 48 hrs by sulforhodamine B assay; assay type: functional
LOX IMVI = assay: Antiproliferative activity against human LOXIMVI cells assessed as growth inhibition after 48 hrs by sulforhodamine B assay; assay type: functional
U-251 = assay: Antiproliferative activity against human U251 cells assessed as growth inhibition after 48 hrs by sulforhodamine B assay; assay type: functional; settings: U-251, 48 h
SNB-75 = assay: Antiproliferative activity against human SNB75 cells assessed as growth inhibition after 48 hrs by sulforhodamine B assay; assay type: functional; settings: SNB-75, 48 h
SNB-19 = assay: Antiproliferative activity against human SNB19 cells assessed as growth inhibition after 48 hrs by sulforhodamine B assay; assay type: functional; settings: SNB-19, 48 h
SF-295 = assay: Antiproliferative activity against human SF295 cells assessed as growth inhibition after 48 hrs by sulforhodamine B assay; assay type: functional; settings: SF-295, 48 h
SF-268 = assay: Antiproliferative activity against human SF268 cells assessed as growth inhibition after 48 hrs by sulforhodamine B assay; assay type: functional; settings: SF-268, 48 h
KM12 = assay: Antiproliferative activity against human KM12 cells assessed as growth inhibition after 48 hrs by sulforhodamine B assay; assay type: functional; settings: KM12, 48 h
HT-29 = assay: Antiproliferative activity against human HT-29 cells assessed as growth inhibition after 48 hrs by sulforhodamine B assay; assay type: functional; settings: HT-29, 48 h
HCT-15 = assay: Antiproliferative activity against human HCT15 cells assessed as growth inhibition after 48 hrs by sulforhodamine B assay; assay type: functional; settings: HCT-15, 48 h
HCC 2998 = assay: Antiproliferative activity against human HCC2998 cells assessed as growth inhibition after 48 hrs by sulforhodamine B assay; assay type: functional; settings: HCC 2998, 48 h
NCI-H460 = assay: Antiproliferative activity against human NCI-H460 cells assessed as growth inhibition after 48 hrs by sulforhodamine B assay; assay type: functional; settings: NCI-H460, 48 h
NCI-H322M = assay: Antiproliferative activity against human NCI-H322M cells assessed as growth inhibition after 48 hrs by sulforhodamine B assay; assay type: functional
EKVX = assay: Antiproliferative activity against human EKVX cells assessed as growth inhibition after 48 hrs by sulforhodamine B assay; assay type: functional
A549 = assay: Antiproliferative activity against human A549/ATCC cells assessed as growth inhibition after 48 hrs by sulforhodamine B assay; assay type: functional; settings: A549, 48 h
MOLT-4 = assay: Antiproliferative activity against human MOLT4 cells assessed as growth inhibition after 48 hrs by sulforhodamine B assay; assay type: functional; settings: MOLT-4, 48 h
HL-60(TB) = assay: Antiproliferative activity against human HL-60(TB) cells assessed as growth inhibition after 48 hrs by sulforhodamine B assay; assay type: functional; settings: HL-60, 48 h
CCRF-CEM = assay: Antiproliferative activity against human CCRF-CEM cells assessed as growth inhibition after 48 hrs by sulforhodamine B assay; assay type: functional
Hs-578T = assay: Antiproliferative activity against human Hs578T cells assessed as growth inhibition after 48 hrs by sulforhodamine B assay; assay type: functional
Erythrocyte [4] = assay: Haemolytic activity in human erythrocytes assessed as induction of hemolysis at 1.25 mM after 30 mins relative to H202; assay type: cell-based; settings: erythrocyte, 0.5 h, 1250 µM
Erythrocyte [5] = assay: Haemolytic activity in human erythrocytes assessed as induction of hemolysis at 0.625 mM after 30 mins relative to H202; assay type: cell-based; settings: erythrocyte, 0.5 h, 625 µM
[6] = Antioxidant activity assessed as DPPH radical scavenging activity incubated in dark for 30 mins by spectrophotometric method relative to ascorbic acid; assay type: functional
[7] = Antioxidant activity assessed as hydroxyl radical scavenging activity after 1 hr by salicylic acid-based Fenton reaction assay; assay type: functional
[8] = Pro-oxidant activity assessed as increase in bleomycin-Fe2+ induced calf thymus DNA damage at 2 mM after 1 hr by thiobarbituric acid based absorbance analysis
HCT-116 [9] = assay: Induction of apoptosis in human HCT116 cells assessed as increase in caspase 9 mRNA expression at 100 nM after 6 hrs hrs by SYBR green dye-based qRT-PCR analysis relative to control; assay type: functional
HCT-116 [10] = assay: […] in CDK1 mRNA expression in human HCT116 cells at 100 nM after 6 hrs hrs by SYBR green dye-based qRT-PCR analysis relative to control; assay type: functional

**Q.** Which GI50 (UO-31) does the source give for `COc1cc(OC)cc(-c2ccc(-c3ccc(C(=N)N)o3)o2)c1` here?
**A.** Its GI50 is 2670 nM.

**Q.** What about the GI50 [1] of the same molecule?
**A.** Its GI50 is 3020 nM.

**Q.** And the LC50 [1]?
**A.** The LC50 was 22900 nM.

**Q.** What about the TGI [1] of the same molecule?
**A.** Its TGI is 8120 nM.

**Q.** And the IC50 (WI-38)?
**A.** The IC50 was 81600 nM.

**Q.** And the “Selectivity Index” value [2]?
**A.** The value was 27.

**Q.** What about the GI50 (PC-3) of the same molecule?
**A.** The GI50 was 4770 nM.

**Q.** What about the GI50 (OVCAR-3) of the same molecule?
**A.** The GI50 was 3260 nM.

**Q.** And the inhibition of growth at 10 µM [3]?
**A.** Its inhibition of growth at 10 µM is 55.9%.

**Q.** And the GI50 (DU-145)?
**A.** Its GI50 is 4280 nM.

**Q.** What about the GI50 (ACHN) of the same molecule?
**A.** Its GI50 is 2050 nM.

**Q.** And the GI50 (786-0)?
**A.** The GI50 was 4150 nM.

**Q.** And the GI50 (SK-OV-3)?
**A.** Its GI50 is 14900 nM.

**Q.** What about the GI50 (NCI/ADR-RES) of the same molecule?
**A.** Its GI50 is 8260 nM.

**Q.** What about the GI50 (IGROV-1) of the same molecule?
**A.** The GI50 was 2970 nM.

**Q.** What about the GI50 (SK-MEL-5) of the same molecule?
**A.** The GI50 was 1950 nM.

**Q.** What about the GI50 (SK-MEL-2) of the same molecule?
**A.** Its GI50 is 2440 nM.

**Q.** And the GI50 (MDA-MB-435)?
**A.** Its GI50 is 1520 nM.

**Q.** What about the GI50 (Malme-3M) of the same molecule?
**A.** Its GI50 is 2040 nM.

**Q.** And the GI50 (LOX IMVI)?
**A.** The GI50 was 1790 nM.

**Q.** And the GI50 (U-251)?
**A.** Its GI50 is 2450 nM.

**Q.** What about the GI50 (SNB-75) of the same molecule?
**A.** Its GI50 is 2200 nM.

**Q.** And the GI50 (SNB-19)?
**A.** Its GI50 is 3020 nM.

**Q.** What about the GI50 (SF-295) of the same molecule?
**A.** The GI50 was 2080 nM.

**Q.** And the GI50 (SF-268)?
**A.** Its GI50 is 3400 nM.

**Q.** And the GI50 (KM12)?
**A.** The GI50 was 2450 nM.

**Q.** And the GI50 (HT-29)?
**A.** Its GI50 is 2770 nM.

**Q.** What about the GI50 (HCT-15) of the same molecule?
**A.** The GI50 was 3180 nM.

**Q.** What about the GI50 (HCC 2998) of the same molecule?
**A.** The GI50 was 2050 nM.

**Q.** And the GI50 (NCI-H460)?
**A.** Its GI50 is 2320 nM.

**Q.** What about the GI50 (NCI-H322M) of the same molecule?
**A.** Its GI50 is 2860 nM.

**Q.** What about the GI50 (EKVX) of the same molecule?
**A.** Its GI50 is 5090 nM.

**Q.** What about the GI50 (A549) of the same molecule?
**A.** Its GI50 is 3780 nM.

**Q.** What about the GI50 (MOLT-4) of the same molecule?
**A.** Its GI50 is 2440 nM.

**Q.** What about the GI50 (HL-60(TB)) of the same molecule?
**A.** The GI50 was 1900 nM.

**Q.** What about the GI50 (CCRF-CEM) of the same molecule?
**A.** The GI50 was 2720 nM.

**Q.** What about the GI50 (Hs-578T) of the same molecule?
**A.** Its GI50 is 8120 nM.

**Q.** And the Activity (Erythrocyte [4])?
**A.** Its Activity is “Non-Toxic”.

**Q.** What about the Activity (Erythrocyte [5]) of the same molecule?
**A.** The Activity was “Non-Toxic”.

**Q.** What about the fold change (FC) [6] of the same molecule?
**A.** Its fold change (FC) is 0.3.

**Q.** And the Activity [7]?
**A.** The Activity was “Active”.

**Q.** What about the Activity [8] of the same molecule?
**A.** Its Activity is “Active”.

**Q.** What about the “fold change (FC)” value (HCT-116 [9]) of the same molecule?
**A.** Its value is 1.03.

**Q.** And the “fold change (FC)” value (HCT-116 [10])?
**A.** Its value is 1.24.

Source: ChEMBL document CHEMBL4346657, “Anticancer activity, dual prooxidant/antioxidant effect and apoptosis induction profile of new bichalcophene-5-carboxamidines” (Eur J Med Chem, 2019)
